Experimental data from patent US20240327359A1, “3-ISOXAZOLIDINONE COMPOUND, PREPARATION METHOD, HERBICIDAL COMPOSITION AND APPLICATION THEREOF” (QINGDAO KINGAGROOT CHEMICAL COMPOUND CO., LTD., priority 2021, published 2024).

Columns and labels:
Format in all cases: in vivo
[1] = system: weeds; assay: Activity test of the compositions, soil sealing treatment; conditions: read-out: Control effect (%) of B applied alone (B)
In short: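 Pre-emergence soil spray at 450 kg/ha, 0.3 MPa, applied 72 h after sowing pre-germinated seeds, 20 seeds per pot, 4 pots, 4 repeats; actives in acetone diluted with 0.10% Tween-80. Greenhouse, 20 to 30° C; surviving weed fresh weight measured 21 days after treatment.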

[2] = system: Echinochloa crusgalli, Scirpus juncoides, Bidens tripartita L., Sagittaria trifolia; assay: Tests on resistance of the collected weeds to pyrazosulfuron-ethyl; conditions: regular doses; weed seeds collected from Heilongjiang Province of China
Text: Note: The seeds of Echinochloa crusgalli, Scirpus juncoides and Bidens tripartita L., and Sagittaria trifolia were collected from Heilongjiang Province of China.

[3] = system: Digitaria sanguinalis; assay: Weeding effect in post-emergence stage; conditions: 720 g a.i./ha, 3 weeks after application
Text: (§1) The activity level criteria for plant damage (i.e., growth control rate) are as follows:
(§2) The above growth control rates are fresh weight control rates.
(§3) Monocotyledonous and dicotyledonous weed seeds (Descurainia sophia, Capsella bursa-pastoris, Abutilon theophrasti, Galium aparine, Stellaria media, Lithospermum arvense, Rorippa indica, Alopecurus aequalis, Alopecurus japonicus, Eleusine indica, Beckmannia syzigachne, Sclerochloa dura, Phleum paniculatum, Veronica didyma, Bromus japonicus, Aegilops tauschii, Phalaris arundinacea, Amaranthus retroflexus, Chenopodiaceae, Commelina communis, Sonchus arvensis, Convolvulus arvensis, Cirsium setosum, Solanumnigrum, Acalypha australis, Digitaria sanguinalis, Echinochloa crusgalli, Setaria viridis, Setaria glauca, Leptochloa chinensis, Monochoria vaginalis, Sagittaria trifolia, Scirpus juncoides, Cyperus rotundus, Cyperus iria, Cyperus difformis, Fimbristylis, Portulaca oleracea, Xanthium sibiricum, Pharbitis nil, Conyza Canadensis, etc.) and major crop seeds (wheat, corn, rice, soybean, cotton, oilseed rape, millet, sorghum, potato, sesame, ricinus, etc.) were placed in plastic pots filled with soil, then covered with 0.5-2 cm of soil, allowed to grow in a good greenhouse environment. Two weeks after sowing, the test plants were treated in the 2-3 leaf stage. The tested compounds of the present invention were respectively dissolved in acetone, then added with Tween 80 and 1.5 liter/ha of emulsifiable concentrate of methyl oleate as synergist, diluted with a certain amount of water to obtain a solution of a certain concentration, and sprayed by a spray tower onto the plants. After the application, the plants were cultured for 3 weeks in the greenhouse, and then the experimental results of the weeding were recorded. The doses of the used compounds were 45, 90, 180, 360, 720 g a.i./ha, and the averages were obtained from three replicates.

[4] = system: Abutilon theophrasti; assay: Weeding effect in post-emergence stage; conditions: 720 g a.i./ha, 3 weeks after application
Text: as §1, §2, §3

[5] = system: Alopecurus japonicus; assay: Weeding effect in post-emergence stage; conditions: 720 g a.i./ha, 3 weeks after application
Text: as §1, §2, §3

[6] = system: Leptochloa chinensis; assay: Weeding effect in post-emergence stage; conditions: 720 g a.i./ha, 3 weeks after application
Text: as §1, §2, §3

[7] = system: rice; assay: Post-emergence stage, crop damage; conditions: 720 g a.i./ha, 3 weeks after application
Text: as §1, §2, §3

[8] = system: wheat; assay: Post-emergence stage, crop damage; conditions: 720 g a.i./ha, 3 weeks after application
Text: as §1, §2, §3

[9] = system: soy bean; assay: Pre-emergence stage, crop damage; conditions: 2 weeks
Text: as §1, §2
(§4) Monocotyledonous and dicotyledonous weed seeds (Descurainia sophia, Capsella bursa-pastoris, Abutilon theophrasti, Galium aparine, Stellaria media, Lithospermum arvense, Rorippa indica, Alopecurus aequalis, Alopecurus japonicus, Eleusine indica, Beckmannia syzigachne, Sclerochloa dura, Phleum paniculatum, Veronica didyma, Bromus japonicus, Aegilops tauschii, Phalaris arundinacea, Amaranthus retroflexus, Chenopodiaceae, Commelina communis, Sonchus arvensis, Convolvulus arvensis, Cirsium setosum, Solanumnigrum, Acalypha australis, Digitaria sanguinalis, Echinochloa crusgalli, Setaria viridis, Setaria glauca, Leptochloa chinensis, Monochoria vaginalis, Sagittaria trifolia, Scirpus juncoides, Cyperus rotundus, Cyperus iria, Cyperus difformis, Fimbristylis, Portulaca oleracea, Xanthium sibiricum, Pharbitis nil, Conyza Canadensis, etc.) and major crop seeds (wheat, corn, rice, soybean, cotton, oilseed rape, millet, sorghum, potato, sesame, ricinus, etc.) were placed in plastic pots filled with soil, then covered with 0.5-2 cm of soil, allowed to grow in a good greenhouse environment. The test plants were treated on the day of sowing. The tested compounds of the present invention were respectively dissolved in acetone, then added with Tween 80, diluted with a certain amount of water to obtain a solution of a certain concentration, and sprayed by a spray tower onto the plants. After the application, the plants were cultured for 2 weeks in the greenhouse, and then the experimental results of the weeding were recorded. The doses of the used compounds were 3, 6, 12, 24, 48 g ai./mu (1 mu=1/15 ha), and the averages were obtained from three replicates.

[10] = system: peanut; assay: Pre-emergence stage, crop damage; conditions: 48 g a.i./mu, 2 weeks
Text: as §1, §2, §4

[11] = system: rice; assay: Pre-emergence stage, crop damage; conditions: 2 weeks
Text: as §1, §2, §4

[12] = system: wheat; assay: Pre-emergence stage, crop damage; conditions: 2 weeks
Text: as §1, §2, §4

[13] = system: corn; assay: Pre-emergence stage, crop damage; conditions: 24 g a.i./mu, 2 weeks
Text: as §1, §2, §4

[14] = system: cotton; assay: Pre-emergence stage, crop damage; conditions: 2 weeks
Text: as §1, §2, §4

[15] = system: Veronica didyma; assay: Weeding effect in pre-emergence stage; conditions: 2 weeks
Text: as §1, §2, §4

[16] = system: Echinochloa crusgalli; assay: Weeding effect in pre-emergence stage; conditions: 2 weeks
Text: as §1, §2, §4

[17] = system: Lolium perenne; assay: Weeding effect in pre-emergence stage; conditions: 2 weeks
Text: as §1, §2, §4

[18] = system: Descurainia sophia; assay: Weeding effect in pre-emergence stage; conditions: 2 weeks
Text: as §1, §2, §4

[19] = system: Leptochloa chinensis; assay: Weeding effect in pre-emergence stage; conditions: 2 weeks
Text: as §1, §2, §4

CCOC(=O)c1cnn(C)c1S(=O)(=O)NC(=O)Nc1nc(OC)cc(OC)n1 [pyrazosulfuron-ethyl, reference compound]
pest or weed control at 3.75 g/ha ([1]; Cyperus difformis, soil (S), B 0.25 g a.i./mu): 44.8% | pest or weed control at 7.5 g/ha ([1]; Cyperus difformis, soil (S), B 0.5 g a.i./mu): 59.7% | response of the collected weeds to pyrazosulfuron-ethyl [2]: resistant

CC1(C)CON(Cc2ccc(Cl)cc2Cl)C1=O [Control compound A, bixlozone]
pest or weed control at 30 g/ha ([1]; Echinochloa crus-galli, 504 h, Echinochloa crusgalli, soil treatment (S), B at 2 g a.i./mu, 21 days): 41.3% | pest or weed control at 60 g/ha ([1]; Echinochloa crus-galli, 504 h, Echinochloa crusgalli, soil treatment (S), B at 4 g a.i./mu, 21 days): 50.3% | weeding effect in post-emergence stage, activity level (growth control rate) [3]: 3 (Level 3: growth control rate is greater than or equal to 40% and less than 60%) | weeding effect in post-emergence stage, activity level (growth control rate) [4]: 4 (Level 4: growth control rate is greater than or equal to 60% and less than 85%) | weeding effect in post-emergence stage, activity level (growth control rate) [5]: 3 (Level 3: growth control rate is greater than or equal to 40% and less than 60%) | weeding effect in post-emergence stage, activity level (growth control rate) [6]: 2 (Level 2: growth control rate is greater than or equal to 20% and less than 40%) | plant damage level (growth control rate) on crop, post-emergence stage [7]: 2 (Level 2: growth control rate is greater than or equal to 20% and less than 40%) | plant damage level (growth control rate) on crop, post-emergence stage [8]: 3 (Level 3: growth control rate is greater than or equal to 40% and less than 60%) | plant damage level (growth control rate) on crop, pre-emergence stage ([9]; 24 g a.i./mu): 1 (Level 1: growth control rate is greater than 0% and less than 15%) | plant damage level (growth control rate) on crop, pre-emergence stage ([9]; 48 g a.i./mu): 2 (Level 2: growth control rate is greater than or equal to 15% and less than 30%) | plant damage level (growth control rate) on crop, pre-emergence stage [10]: 1 (Level 1: growth control rate is greater than 0% and less than 15%) | plant damage level (growth control rate) on crop, pre-emergence stage ([11]; 6 g a.i./mu): 1 (Level 1: growth control rate is greater than 0% and less than 15%) | plant damage level (growth control rate) on crop, pre-emergence stage ([11]; 12 g a.i./mu): 2 (Level 2: growth control rate is greater than or equal to 15% and less than 30%) | plant damage level (growth control rate) on crop, pre-emergence stage ([11]; 24 g a.i./mu): 4 (Level 4: growth control rate is greater than or equal to 40% and less than 50%) | plant damage level (growth control rate) on crop, pre-emergence stage ([12]; 6 g a.i./mu): 1 (Level 1: growth control rate is greater than 0% and less than 15%) | plant damage level (growth control rate) on crop, pre-emergence stage ([12]; 12 g a.i./mu): 1 (Level 1: growth control rate is greater than 0% and less than 15%) | plant damage level (growth control rate) on crop, pre-emergence stage ([12]; 24 g a.i./mu): 2 (Level 2: growth control rate is greater than or equal to 15% and less than 30%) | plant damage level (growth control rate) on crop, pre-emergence stage [13]: 2 (Level 2: growth control rate is greater than or equal to 15% and less than 30%) | plant damage level (growth control rate) on crop, pre-emergence stage ([14]; 12 g a.i./mu): 1 (Level 1: growth control rate is greater than 0% and less than 15%) | plant damage level (growth control rate) on crop, pre-emergence stage ([14]; 24 g a.i./mu): 2 (Level 2: growth control rate is greater than or equal to 15% and less than 30%) | weeding effect in pre-emergence stage, activity level (growth control rate) ([15]; 6 g a.i./mu): 8 (Level 8: growth control rate is greater than or equal to 80% and less than 100%) | weeding effect in pre-emergence stage, activity level (growth control rate) ([15]; 12 g a.i./mu): 9 | weeding effect in pre-emergence stage, activity level (growth control rate) ([15]; 24 g a.i./mu): 9 | weeding effect in pre-emergence stage, activity level (growth control rate) ([16]; 3 g a.i./mu): 7 (Level 7: growth control rate is greater than or equal to 70% and less than 80%) | weeding effect in pre-emergence stage, activity level (growth control rate) ([16]; 6 g a.i./mu): 9 | weeding effect in pre-emergence stage, activity level (growth control rate) ([16]; 12 g a.i./mu): 9 | weeding effect in pre-emergence stage, activity level (growth control rate) ([16]; 24 g a.i./mu): 9 | weeding effect in pre-emergence stage, activity level (growth control rate) ([17]; 6 g a.i./mu): 2 (Level 2: growth control rate is greater than or equal to 15% and less than 30%) | weeding effect in pre-emergence stage, activity level (growth control rate) ([17]; 24 g a.i./mu): 9 | weeding effect in pre-emergence stage, activity level (growth control rate) ([18]; 3 g a.i./mu): 4 (Level 4: growth control rate is greater than or equal to 40% and less than 50%) | weeding effect in pre-emergence stage, activity level (growth control rate) ([18]; 6 g a.i./mu): 4 (Level 4: growth control rate is greater than or equal to 40% and less than 50%) | weeding effect in pre-emergence stage, activity level (growth control rate) ([18]; 12 g a.i./mu): 9 | weeding effect in pre-emergence stage, activity level (growth control rate) ([18]; 24 g a.i./mu): 9 | weeding effect in pre-emergence stage, activity level (growth control rate) ([19]; 3 g a.i./mu): 6 (Level 6: growth control rate is greater than or equal to 60% and less than 70%) | weeding effect in pre-emergence stage, activity level (growth control rate) ([19]; 6 g a.i./mu): 9 | weeding effect in pre-emergence stage, activity level (growth control rate) ([19]; 12 g a.i./mu): 9 | weeding effect in pre-emergence stage, activity level (growth control rate) ([19]; 24 g a.i./mu): 9
